Here are results for 15 compounds from US12098148B2, “Therapeutic compounds” (C4X Discovery Limited, priority 2018, dated 2024).

Test [1] addresses human KEAP1 (N-term, residues 321-609) (Homo sapiens, UniProt Q14145). The experiment in a line: biochemical.
The test system of test [2] is NQO1 mRNA in BEAS-2B cells. The experiment in a line: Beas2B NQO1 mRNA cell based assay. Also on record: species or system human. The note with it: Homo sapiens, BEAS-2B. The method, then: Beas2B NQO1 mRNA Cell Based Assay
The up regulation of the NRF2 mediated gene NAD(P)H:quinone acceptor oxidoreductase 1 (NQO1) was measured using the following assay method: BEAS-2B cells (ATCC CRL-9609) were plated in 96-well clear plates at 20,000 cells/well in 75 μL of cell culture media and incubated overnight (37° C., 5% CO2). On day 2, 25 μL of compound or controls were added to the cells for 24 h. On day 3, the medium was aspirated from the plate and the Cells-to-CT™ 1-Step TaqMan® Kit (Ambion A25603) was used to perform expression analysis directly from cultured cells without RNA purification according to the manufacturer's instructions.
Briefly, cells were washed with ice cold PBS and 22.5 μL of room-temperature DNase/Lysis solution was added to the cells and incubated at room temperature for 5 minutes. To stop the reaction, 2.25 μL of stop solution was added to the cell lysate. The samples were diluted 1:5 using nuclease free water and 2.5 μL transferred into the PCR plate. Real-time PCR was performed using the C-1000 Thermal Cycler (Bio-Rad) using human beta actin as the internal control. The cDNA was amplified with a specific primer for NQO1 using the 1-step RT-PCR master mix (Ambion Cells-to-CT™ 1-Step TaqMan® Kit A25603). The primers/probes sets that were used for amplification of cDNA were obtained from TaqMan Gene Expression Assays (Applied Biosystems). The comparative CT (ΔΔCT) relative quantification method was used to calculate the relative mRNA level of the target gene NQO1 as described in the Applied Biosystems Chemistry Guide.

Where [3] appears, read: 24 h, 24 h compound treatment, increase in NQO1 mRNA vs vehicle (0.1% DMSO), read-out: EC50.

Like-named read-outs stand apart in the source and are kept apart here.
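For IC50 in this document: fluorescence polarization competition assay of Kelch domain binding to NRF2, 12-point 1:3 dilution series from 10 µM, read after 1 h at room temperature, floor 10 nM.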

human KEAP1 (N-term, residues 321-609), sequence (Q14145 321-609): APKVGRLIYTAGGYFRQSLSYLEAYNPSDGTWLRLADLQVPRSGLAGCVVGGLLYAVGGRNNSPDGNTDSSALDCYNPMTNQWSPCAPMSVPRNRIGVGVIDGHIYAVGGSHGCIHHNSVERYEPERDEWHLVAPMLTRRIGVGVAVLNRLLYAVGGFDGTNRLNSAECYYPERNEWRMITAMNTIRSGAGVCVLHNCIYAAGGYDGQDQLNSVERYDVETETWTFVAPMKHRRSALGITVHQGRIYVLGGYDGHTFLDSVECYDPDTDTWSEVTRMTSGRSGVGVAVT

In the case of `Cn1nnc(COc2ccc(Cl)c3c2[C@@H](CN2CCCC2=O)N(C(=O)[C@@H]2CC4CCC2(C(=O)O)CC4)CC3)c1C(F)F` [Example 141, (R)-2-((S)-5-chloro-8-((5-(difluoromethyl)-1-methyl-1H-1,2,3-triazol-4-yl)methoxy)-1-((2-oxopyrrolidin-1-yl)methyl)-1,2,3,4-tetrahydroisoquinoline-2-carbonyl)bicyclo[2.2.2]octane-1-carboxylic acid], in test [1], the IC50 came to 7 nM. In addition, the EC50 in test [2] (setting [3]) came to 35 nM.
On the same counts, the results for `Cc1conc1COc1ccc(Cl)c2c1[C@@H](CN1CCCC1=O)N(C(=O)[C@@H]1CCCC[C@]1(C)C(=O)O)CC2` [Example 137, (1S,2R)-2-((S)-5-chloro-8-((4-methylisoxazol-3-yl)methoxy)-1-((2-oxopyrrolidin-1-yl)methyl)-1,2,3,4-tetrahydroisoquinoline-2-carbonyl)-1-methylcyclohexane-1-carboxylic acid] are 6.3 nM and 6.7 nM.
The corresponding values for `Cn1nnc(COc2ccc(Cl)c3c2[C@@H](CN2CC4(CC4)CC2=O)N(C(=O)[C@@H]2CCCO[C@@H]2C(=O)O)CC3)c1C(F)F` [Example 226, (2S,3R)-3-((S)-5-chloro-8-((5-(difluoromethyl)-1-methyl-1H-1,2,3-triazol-4-yl)methoxy)-1-((6-oxo-5-azaspiro[2.4]heptan-5-yl)methyl)-1,2,3,4-tetrahydroisoquinoline-2-carbonyl)tetrahydro-2H-pyran-2-carboxylic acid] are 5 nM and 14 nM.
The corresponding values for `CC(=O)N1CC[C@H](Oc2ccc(Br)c3c2[C@@H](CN2C(=O)c4ccccc4C2=O)N(C(=O)[C@@H]2CCCC[C@@H]2C(=O)O)CC3)C1` [Example 11, (1S,2R)-2-((S)-8-(((S)-1-Acetylpyrrolidin-3-yl)oxy)-5-bromo-1-((1,3-dioxoisoindolin-2-yl)methyl)-1,2,3,4-tetrahydroisoquinoline-2-carbonyl)cyclohexane-1-carboxylic acid] are 5.1 nM and 3.5 nM.
Consider `COc1ccc(OCc2cn(C(C)C)nn2)c2c1CCN(C(=O)[C@@H]1CCCC[C@@H]1C(=O)O)[C@@H]2CN1Cc2ccccc2C1=O` [Example 61, (1S,2R)-2-((S)-8-((1-isopropyl-1H-1,2,3-triazol-4-yl)methoxy)-5-methoxy-1-((1-oxoisoindolin-2-yl)methyl)-1,2,3,4-tetrahydroisoquinoline-2-carbonyl)cyclohexane-1-carboxylic acid], for which the half-inhibitory concentration (IC50) in test [1] is 5.6 nM. Also, the EC50 in test [2] (setting [3]) was 63 nM.
On the same counts, the results for `CCn1nnc(COc2ccc(Cl)c3c2[C@@H](CN2CCCC2=O)N(C(=O)[C@@H]2CCCC[C@]2(C)C(=O)O)CC3)c1C(F)F` [Example 120, (1S,2R)-2-((S)-5-chloro-8-((5-(difluoromethyl)-1-ethyl-1H-1,2,3-triazol-4-yl)methoxy)-1-((2-oxopyrrolidin-1-yl)methyl)-1,2,3,4-tetrahydroisoquinoline-2-carbonyl)-1-methylcyclohexane-1-carboxylic acid] are 6.2 nM and 1.2 nM.
For `Cn1nnc(COc2ccc(Cl)c3c2[C@@H](CN2CC4(CC4)CC2=O)N(C(=O)[C@@H]2CCCC[C@]2(C)C(=O)O)CC3)c1C(F)(F)F` [Example 150, (1S,2R)-2-((S)-5-chloro-8-((1-methyl-5-(trifluoromethyl)-1H-1,2,3-triazol-4-yl)methoxy)-1-((6-oxo-5-azaspiro [2.4]heptan-5-yl)methyl)-1,2,3,4-tetrahydroisoquinoline-2-carbonyl)-1-methylcyclohexane-1-carboxylic acid], in test [1], 5 nM corresponded to half-maximal inhibition (IC50). For the same compound, the EC50 in test [2] (setting [3]) came out at 0.97 nM.
Take `C[C@]1(C(=O)O)CCCC[C@H]1C(=O)N1CCc2c(Cl)ccc(OCc3nnn4c3CCCC4)c2[C@H]1CN1CCOCC1=O` [Example 196]: it took 5.6 nM to reach half-maximal inhibition in test [1] (IC50). The EC50 in test [2] (setting [3]) stood at 0.97 nM.
The corresponding values for `Cc1onc(COc2ccc(Cl)c3c2[C@@H](CN2CCCC2=O)N(C(=O)[C@@H]2CCCC[C@]2(C)C(=O)O)CC3)c1Cl` [Example 125, (1S,2R)-2-((S)-5-chloro-8-((4-chloro-5-methylisoxazol-3-yl)methoxy)-1-((2-oxopyrrolidin-1-yl)methyl)-1,2,3,4-tetrahydroisoquinoline-2-carbonyl)-1-methylcyclohexane-1-carboxylic acid] are 9.2 nM and 30 nM.
For the compound `CC(C)n1ccnc1COc1ccc(Br)c2c1[C@@H](CN1Cc3ccccc3C1=O)N(C(=O)[C@@H]1CCCC[C@@H]1C(=O)O)CC2` [Example 40, (1S,2R)-2-((S)-5-bromo-8-((1-isopropyl-1H-imidazol-2-yl)methoxy)-1-((1-oxoisoindolin-2-yl)methyl)-1,2,3,4-tetrahydroisoquinoline-2-carbonyl)cyclohexane-1-carboxylic acid], in test [1], the IC50 was found to be 9 nM. Further, in test [2] (setting [3]), the 50% effective concentration (EC50) was found to be 94 nM.
On the same counts, the results for `O=C(O)[C@H]1CCCC[C@H]1C(=O)N1CCc2c(Br)ccc(OCc3nnc4ccccn34)c2[C@H]1CN1Cc2ccccc2C1=O` [Example 16, (1S,2R)-2-((S)-8-([1,2,4]triazolo[4,3-a]pyridin-3-ylmethoxy)-5-bromo-1-((1-oxoisoindolin-2-yl)methyl)-1,2,3,4-tetrahydroisoquinoline-2-carbonyl)cyclohexane-1-carboxylic acid] are 8.1 nM and 2 nM.
`Cn1cnc2cc(COc3cccc4c3[C@@H](CN3C(=O)c5ccccc5C3=O)N(C(=O)[C@@H]3CCCC[C@@H]3C(=O)O)CC4)ccc21` [Example 10, (1S,2R)-2-((S)-1-((1,3-dioxoisoindolin-2-yl)methyl)-8-((1-methyl-1H-benzo[d]imidazol-5-yl)methoxy)-1,2,3,4-tetrahydroisoquinoline-2-carbonyl)cyclohexane-1-carboxylic acid] registered an IC50 in test [1] of 15 nM. In addition, the concentration for a half-maximal effect (EC50) was 140 nM in test [2] (setting [3]) and greater than 500 nM in test [2] (NQO1 mRNA, on one test occasion, read-out: EC50 on one test occasion (footnote to Table 5)).
In test [1], `O=C(O)[C@H]1CCCC[C@H]1C(=O)N1CCc2c(Cl)ccc(O[C@H]3CCN(C(=O)c4cncs4)C3)c2[C@H]1CN1C(=O)c2ccccc2C1=O` [Example 14, (1S,2R)-2-((S)-5-chloro-1-((1,3-dioxoisoindolin-2-yl)methyl)-8-(((S)-1-(thiazole-5-carbonyl)pyrrolidin-3-yl)oxy)-1,2,3,4-tetrahydroisoquinoline-2-carbonyl)cyclohexane-1-carboxylic acid] displayed an IC50 of 3.7 nM. Moreover, in test [2] (setting [3]), the EC50 amounted to 2.9 nM.
The corresponding values for `Cn1nnc(COc2cccc3c2[C@@H](CN2CCCC2=O)N(C(=O)[C@@H]2CCCC[C@]2(C)C(=O)O)CC3)c1C(F)(F)F` [Example 190, (1S,2R)-1-methyl-2-((S)-8-((1-methyl-5-(trifluoromethyl)-1H-1,2,3-triazol-4-yl)methoxy)-1-((2-oxopyrrolidin-1-yl)methyl)-1,2,3,4-tetrahydroisoquinoline-2-carbonyl)cyclohexane-1-carboxylic acid] are 5.6 nM and 8.6 nM.
The corresponding values for `Cn1cccc(COc2ccc(Cl)c3c2[C@@H](CN2CC4(CC4)CC2=O)N(C(=O)[C@@H]2CCCC[C@]2(C)C(=O)O)CC3)c1=O` [Example 211, (1S,2R)-2-((S)-5-chloro-8-((1-methyl-2-oxo-1,2-dihydropyridin-3-yl)methoxy)-1-((6-oxo-5-azaspiro[2.4]heptan-5-yl)methyl)-1,2,3,4-tetrahydroisoquinoline-2-carbonyl)-1-methylcyclohexane-1-carboxylic acid] are 6.8 nM and 43 nM.

In general, IC50 refers to the concentration that inhibits the measured activity by half. Read a low IC50 as higher potency. For orientation: EC50 means the concentration giving half of the maximal effect.
